Literature values, collected in patent US8632826B2, “Cosmetic wrinkle treatment method based on a zanthoxylum bungeanum extract” (Indena S.p.A., priority 2009, dated 2014).

Tested on: thrombosis

Structure (SMILES): COc1ccc2c(c[n+](C)c3c4cc5c(cc4ccc23)OCO5)c1OC [chelcrythrine]
- activity in the prevention of thrombosis: active in the prevention of thrombosis
